Reference: US11358957B2, “Microbiocidal oxadiazole derivatives” (SYNGENTA PARTICIPATIONS AG, priority 2017, dated 2022)

Columns and labels:
[1] = system: Glomerella lagenarium (Colletotrichum lagenarium); assay: Fungicidal activity against Glomerella lagenarium (Colletotrichum lagenarium) liquid culture / cucumber / preventative (anthracnose); format: cell-based; conditions: Colletotrichum orbiculare; 20 ppm in the applied formulation; liquid culture (PDB), inhibition of growth measured photometrically 3 to 4 days after application; compared to untreated; read-out: disease control
Method in brief: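 Conidia from cryogenic storage mixed into potato dextrose broth and added to compound in DMSO in microtiter plates. Incubated at 24° C.; growth inhibition read photometrically 3 to 4 days after application. Disease control expressed relative to untreated control, with compound at 20 ppm in the applied formulation.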

[2] = system: Puccinia recondita f. Sp. Tritici; assay: Fungicidal activity against Puccinia recondita f. sp. tritici / wheat / leaf disc curative (brown rust); format: in vivo; conditions: foliar, 24 h, 200 ppm in the applied formulation, wheat leaf segments cv. Kanzler, curative (applied 1 day after inoculation), compared to untreated, read-out: disease control
Method in brief: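 Wheat leaf segments (cv. Kanzler) on agar were inoculated with brown rust spores, kept dark at 19 °C and 75% RH, then sprayed 1 day later with compound (DMSO stock diluted in 0.025% Tween20). Under 12 h light/12 h dark at 19 °C, percent disease control versus untreated was scored 6–8 days after application; 200 ppm applied.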

Phakopsora pachyrhizi = assay: Fungicidal activity against Phakopsora pachyrhizi / soybean / leaf disc preventative (Asian soybean rust); format: in vivo; conditions: foliar, 200 ppm in the applied formulation, soybean leaf disks, compared to untreated, read-out: disease control
Method: Leaf disks or leaf segments of various plant species are cut from plants grown in a greenhouse. The cut leaf disks or segments are placed in multiwell plates (24-well format) onto water agar. The leaf disks are sprayed with a test solution before (preventative) or after (curative) inoculation. Compounds to be tested are prepared as DMSO solutions (max. 10 mg/mL) which are diluted to the appropriate concentration with 0.025% Tween20 just before spraying. The inoculated leaf disks or segments are incubated under defined conditions (temperature, relative humidity, light, etc.) according to the respective test system. A single evaluation of disease level is carried out 3 to 14 days after inoculation, depending on the pathosystem. Percent disease control relative to the untreated check leaf disks or segments is then calculated. Soybean leaf disks are placed on water agar in multiwell plates (24-well format) and sprayed with the formulated test compound diluted in water. One day after application leaf discs are inoculated by spraying a spore suspension on the lower leaf surface. After an incubation period in a climate cabinet of 24-36 hours in darkness at 20° C. and 75% rh leaf disc are kept at 20° C. with 12 h light/day and 75% rh. The activity of a compound is assessed as percent disease control compared to untreated when an appropriate level of disease damage appears in untreated check leaf disks (12 to 14 days after application). The following compounds at 200 ppm in the applied formulation give at least 80% disease control in this test when compared to untreated control leaf disks under the same conditions, which show extensive disease development.

[3] = system: Puccinia recondita f. Sp. Tritici; assay: Fungicidal activity against Puccinia recondita f. sp. tritici / wheat / leaf disc preventative (brown rust); format: in vivo; conditions: foliar, 200 ppm in the applied formulation, wheat leaf segments cv. Kanzler, preventative (inoculated 1 day after application), compared to untreated, read-out: disease control
Method in brief: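 Segments of wheat cv. Kanzler on water agar were sprayed with compound and inoculated with spores 1 day later. They were kept at 19 °C, 75% rh and 12 h light/12 h dark. Percent disease control versus untreated was scored 7–9 days after application; compounds were tested at 200 ppm.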

CCOC(=O)c1cnn(Cc2ccc(-c3noc(C(F)(F)F)n3)s2)c1 [Compound 1.1, ethyl 1-[[5-[5-(trifluoromethyl)-1,2,4-oxadiazol-3-yl]-2-thienyl]methyl]pyrazole-4-carboxylate]
≥ 80%: inhibition of growth at 20 ppm [1] | pest or weed control at 200 ppm [2] | pest or weed control at 200 ppm (Phakopsora pachyrhizi) | pest or weed control at 200 ppm [3]

COC(=O)c1ncn(Cc2ccc(-c3noc(C(F)(F)F)n3)s2)n1 [Compound 1.6, methyl 1-[[5-[5-(trifluoromethyl)-1,2,4-oxadiazol-3-yl]-2-thienyl]methyl]-1,2,4-triazole-3-carboxylate]
≥ 80%: inhibition of growth at 20 ppm [1] | pest or weed control at 200 ppm [2] | pest or weed control at 200 ppm (Phakopsora pachyrhizi) | pest or weed control at 200 ppm [3]

CN(C)c1ncnn1Cc1ccc(-c2noc(C(F)(F)F)n2)s1 [Compound 1.13, N,N-dimethyl-2-[[5-[5-(trifluoromethyl)-1,2,4-oxadiazol-3-yl]-2-thienyl]methyl]-1,2,4-triazol-3-amine]
≥ 80%: inhibition of growth at 20 ppm [1] | pest or weed control at 200 ppm [2] | pest or weed control at 200 ppm (Phakopsora pachyrhizi) | pest or weed control at 200 ppm [3]

Nc1nc(C(F)F)nn1Cc1ccc(-c2noc(C(F)(F)F)n2)s1 [Compound 1.14, 5-(difluoromethyl)-2-[[5-[5-(trifluoromethyl)-1,2,4-oxadiazol-3-yl]-2-thienyl]methyl]-1,2,4-triazol-3-amine]
≥ 80%: inhibition of growth at 20 ppm [1] | pest or weed control at 200 ppm [2] | pest or weed control at 200 ppm (Phakopsora pachyrhizi) | pest or weed control at 200 ppm [3]

FC(F)(F)c1nc(-c2ccc(Cn3ccnc3)s2)no1 [Compound 1.17, 3-[5-(imidazol-1-ylmethyl)-2-thienyl]-5-(trifluoromethyl)-1,2,4-oxadiazole]
≥ 80%: inhibition of growth at 20 ppm [1] | pest or weed control at 200 ppm [2] | pest or weed control at 200 ppm (Phakopsora pachyrhizi) | pest or weed control at 200 ppm [3]

COCc1nn(Cc2ccc(-c3noc(C(F)(F)F)n3)s2)cc1C(=O)OC [Compound 1.19, methyl 3-(methoxymethyl)-1-[[5-[5-(trifluoromethyl)-1,2,4-oxadiazol-3-yl]-2-thienyl]methyl]pyrazole-4-carboxylate]
≥ 80%: inhibition of growth at 20 ppm [1] | pest or weed control at 200 ppm [2] | pest or weed control at 200 ppm (Phakopsora pachyrhizi) | pest or weed control at 200 ppm [3]

Cc1cc(C)n(Cc2ccc(-c3noc(C(F)(F)F)n3)s2)n1 [Compound 1.21, 3-[5-[(3,5-dimethylpyrazol-1-yl)methyl]-2-thienyl]-5-(trifluoromethyl)-1,2,4-oxadiazole]
≥ 80%: inhibition of growth at 20 ppm [1] | pest or weed control at 200 ppm [2] | pest or weed control at 200 ppm (Phakopsora pachyrhizi) | pest or weed control at 200 ppm [3]

COc1ccc2ncn(Cc3ccc(-c4noc(C(F)(F)F)n4)s3)c2c1 [Compound 1.23, 3-[5-[(6-methoxybenzimidazol-1-yl)methyl]-2-thienyl]-5-(trifluoromethyl)-1,2,4-oxadiazole]
≥ 80%: inhibition of growth at 20 ppm [1] | pest or weed control at 200 ppm [2] | pest or weed control at 200 ppm (Phakopsora pachyrhizi) | pest or weed control at 200 ppm [3]

COc1ccc2c(c1)ncn2Cc1ccc(-c2noc(C(F)(F)F)n2)s1 [Compound 1.24, 3-[5-[(5-methoxybenzimidazol-1-yl)methyl]-2-thienyl]-5-(trifluoromethyl)-1,2,4-oxadiazole]
≥ 80%: inhibition of growth at 20 ppm [1] | pest or weed control at 200 ppm [2] | pest or weed control at 200 ppm (Phakopsora pachyrhizi) | pest or weed control at 200 ppm [3]

FC(F)(F)c1nc(-c2ccc(Cn3cnc4ccccc43)s2)no1 [Compound 1.25, 3-[5-(benzimidazol-1-ylmethyl)-2-thienyl]-5-(trifluoromethyl)-1,2,4-oxadiazole]
≥ 80%: inhibition of growth at 20 ppm [1] | pest or weed control at 200 ppm [2] | pest or weed control at 200 ppm (Phakopsora pachyrhizi) | pest or weed control at 200 ppm [3]

CCOC(=O)c1cnn(C(C)c2ccc(-c3noc(C(F)(F)F)n3)s2)c1 (stereo not drawn) [Compound 1.30, ethyl 1-[1-[5-[5-(trifluoromethyl)-1,2,4-oxadiazol-3-yl]-2-thienyl]ethyl]pyrazole-4-carboxylate]
≥ 80%: inhibition of growth at 20 ppm [1] | pest or weed control at 200 ppm [2] | pest or weed control at 200 ppm (Phakopsora pachyrhizi) | pest or weed control at 200 ppm [3]

Cc1cccc(=O)n1C(C)c1ccc(-c2noc(C(F)(F)F)n2)s1 (stereo not drawn) [Compound 1.33, 6-methyl-1-[1-[5-[5-(trifluoromethyl)-1,2,4-oxadiazol-3-yl]-2-thienyl]ethyl]pyridin-2-one]
≥ 80%: inhibition of growth at 20 ppm [1] | pest or weed control at 200 ppm [2] | pest or weed control at 200 ppm (Phakopsora pachyrhizi) | pest or weed control at 200 ppm [3]

CC(c1ccc(-c2noc(C(F)(F)F)n2)s1)N1CCCCC1=O (stereo not drawn) [Compound 1.34, 1-[1-[5-[5-(trifluoromethyl)-1,2,4-oxadiazol-3-yl]-2-thienyl]ethyl]piperidin-2-one]
≥ 80%: inhibition of growth at 20 ppm [1] | pest or weed control at 200 ppm [2] | pest or weed control at 200 ppm (Phakopsora pachyrhizi) | pest or weed control at 200 ppm [3]

CCOC(=O)c1ncnn1Cc1ccc(-c2noc(C(F)(F)F)n2)s1 [Compound 1.41, ethyl 2-[[5-[5-(trifluoromethyl)-1,2,4-oxadiazol-3-yl]-2-thienyl]methyl]-1,2,4-triazole-3-carboxylate]
≥ 80%: inhibition of growth at 20 ppm [1] | pest or weed control at 200 ppm [2] | pest or weed control at 200 ppm (Phakopsora pachyrhizi) | pest or weed control at 200 ppm [3]

CCCOC(=O)c1ncnn1Cc1ccc(-c2noc(C(F)(F)F)n2)s1 [Compound 1.44, propyl 2-[[5-[5-(trifluoromethyl)-1,2,4-oxadiazol-3-yl]-2-thienyl]methyl]-1,2,4-triazole-3-carboxylate]
≥ 80%: inhibition of growth at 20 ppm [1] | pest or weed control at 200 ppm [2] | pest or weed control at 200 ppm (Phakopsora pachyrhizi) | pest or weed control at 200 ppm [3]

CN(C)C(=O)c1ccnn1Cc1ccc(-c2noc(C(F)(F)F)n2)s1 [Compound 1.58, N,N-dimethyl-2-[[5-[5-(trifluoromethyl)-1,2,4-oxadiazol-3-yl]-2-thienyl]methyl]pyrazole-3-carboxamide]
≥ 80%: pest or weed control at 200 ppm [2] | pest or weed control at 200 ppm (Phakopsora pachyrhizi) | pest or weed control at 200 ppm [3]

CCN(CC)C(=O)c1ccnn1Cc1ccc(-c2noc(C(F)(F)F)n2)s1 [Compound 1.161, N,N-diethyl-2-[[5-[5-(trifluoromethyl)-1,2,4-oxadiazol-3-yl]-2-thienyl]methyl]pyrazole-3-carboxamide]
≥ 80%: inhibition of growth at 20 ppm [1] | pest or weed control at 200 ppm [2] | pest or weed control at 200 ppm [3]

O=C(c1ccnn1Cc1ccc(-c2noc(C(F)(F)F)n2)s1)N1CCOCC1 [Compound 1.166, morpholino-[2-[[5-[5-(trifluoromethyl)-1,2,4-oxadiazol-3-yl]-2-thienyl]methyl]pyrazol-3-yl]methanone]
≥ 80%: inhibition of growth at 20 ppm [1] | pest or weed control at 200 ppm [2] | pest or weed control at 200 ppm [3]

C#CCNC(=O)c1ccnn1Cc1ccc(-c2noc(C(F)(F)F)n2)s1 [Compound 1.168, N-prop-2-ynyl-2-[[5-[5-(trifluoromethyl)-1,2,4-oxadiazol-3-yl]-2-thienyl]methyl]pyrazole-3-carboxamide]
≥ 80%: inhibition of growth at 20 ppm [1] | pest or weed control at 200 ppm [2] | pest or weed control at 200 ppm [3]

CCN(C)C(=O)c1ccnn1Cc1ccc(-c2noc(C(F)(F)F)n2)s1 [Compound 1.169, N-ethyl-N-methyl-2-[[5-[5-(trifluoromethyl)-1,2,4-oxadiazol-3-yl]-2-thienyl]methyl]pyrazole-3-carboxamide]
≥ 80%: inhibition of growth at 20 ppm [1] | pest or weed control at 200 ppm [2] | pest or weed control at 200 ppm [3]
